Experimental data published in paper PMC10460844, “Real‐Time Monitoring of Multitarget Antimicrobial Mechanisms of Peptoids Using Label‐Free Imaging with Optical Diffraction Tomography” (Advanced Science, 2023).
In brackets after ≈: the same amount, converted by molar mass. Structures can show the parent of a compound that is named as a salt. Where two headings read alike, the source gives them in different places. Square brackets hold non-standard residues; d marks the D form. Peptide text beside a SMILES is read from it. Gly(N(CH2)2(3-indolyl)) = O=C(O)CNCCc1c[nH]c2ccccc12; Nspe = C[C@H](NCC(=O)O)c1ccccc1; Nphe = O=C(O)CNCc1ccccc1; Nlys = NCCCCNCC(=O)O

Experiments:
E. coli ATCC 25922 = type: cell-based, Escherichia coli
Method: (§1) The antibacterial activity of the peptoids was evaluated against gram‐positive (Staphylococcus aureus, ATCC 25 923) and gram‐negative (Escherichia coli, ATCC 25 922) bacteria. […] The MIC of each peptoid was determined using a broth dilution assay. For each assay, the primary culture of either S. aureus or E. coli was grown overnight in cation‐adjusted Mueller Hinton broth 2 (MHB2) media at 37 °C with shaking. A secondary culture was prepared the next day, grown for 3–4 h, and then diluted in MHB2 media with a final concentration of 0.001% acetic acid and 0.02% bovine serum albumin to obtain a calculated optical density (OD) of 0.001. This corresponded to ≈2–5 × 10^5 colony‐forming units (CFU mL^−1) of bacteria. Using 96‐well polypropylene plates (Eppendorf, Hamburg, Germany), 100 µL of 2–5 × 10^5 CFU mL^−1 bacteria were added in triplicate for each peptoid. Each peptoid was assayed at six different concentrations in two‐fold serial dilutions. The maximum peptoid concentration was 25 µM. […] The MIC value determination was performed in triplicate. The MIC was defined as the lowest peptoid concentration that prevented turbidity during visual inspection.

S. aureus ATCC 25923 = type: cell-based, Staphylococcus aureus
Method: as §1

rat erythrocytes = test: Hemolysis assay; type: cell-based
Summary of the method: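 Washed Sprague-Dawley rat erythrocytes (10% suspension in PBS pH 7.4) mixed with peptoids (0–100 µM), 60 min at 37 °C; supernatant A540 expressed as % of 1% Triton X-100 lysis. HC10/HC50 are concentrations giving 10%/50% hemolysis; Hmax is hemolysis at 100 µM.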

[1] = Analytical reversed-phase HPLC elution (hydrophobicity); type: physicochemical; conditions: analytical RP-HPLC, 1 mL/min, UV 220 nm; for HPLC elution: Table S1, SunFire C18, water/ACN + 0.1% TFA, 5 to 100% B linear over 30 min, approximate comparison of hydrophobicity
Summary of the method: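 Retention time (tR) reflects hydrophobicity, with detection at 220 nm. Elution used a 5–100% acetonitrile linear gradient over 30 min after a 2 min hold at 5%, then 5 min at 100%, with both phases containing 0.1% TFA. Column was an analytical C18 (4.6 × 250 mm, 5 μm) run at 1 mL/min.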

[2] = Table S2, broth dilution, MHB2, 37 °C 24 h, max 25 µM, mean of triplicate

Row | HPLC elution (%ACN) ([1]; Table 1, SunFire C18 […] 250 mm, water/ACN + 0.1% TFA, 5% B 2 min then linear to 100% B over 30 min, used as measure of hydrophobicity) | MIC S. aureus ATCC25923 (S. aureus ATCC 25923; [2]) [µM] | HPLC elution [1] [% MeCN] | MIC E. coli ATCC25922 (E. coli ATCC 25922; [2]) [µM] | Compound | MIC E. coli ATCC25922 (E. coli ATCC 25922; ATCC 25922) [µM] | MIC S. aureus ATCC25923 (S. aureus ATCC 25923; ATCC 25923) [µM] | Hmax (100 µM) (rat erythrocytes) [%] | HC10 (rat erythrocytes; red cells of rat) [µM] | HC50 (rat erythrocytes; red cells of rat) [µM] | H max (100 µM) (rat erythrocytes) [%] | HC10 (rat erythrocytes; pH 7.4) [µM] | HC50 (rat erythrocytes; pH 7.4) [µM]
1 |  |  |  |  | C[C@@H](c1ccccc1)N(CC(N)=O)C(=O)CN(C(=O)CN(CCCCN)C(=O)CN(C(=O)CN(C(=O)CN(CCCCN)C(=O)CN(C(=O)CN(C(=O)CN(CCCCN)C(=O)CN(CCc1c[nH]c2ccccc12)C(=O)CN(C(=O)CNCCCCN)[C@@H](C)c1ccccc1)[C@@H](C)c1ccccc1)[C@@H](C)c1ccccc1)[C@@H](C)c1ccccc1)[C@@H](C)c1ccccc1)[C@@H](C)c1ccccc1 [10-AcOH] | 6.3 (≈ 11.7 µg/mL) | 1.6 (≈ 2.97 µg/mL) | 102.3±11.3 | 14.1 | 29.4 |  |  | 
2 |  |  |  |  | C[C@@H](c1ccccc1)N(CC(N)=O)C(=O)CN(C(=O)CN(CCCCN)C(=O)CN(C(=O)CN(C(=O)CN(CCCCN)C(=O)CN(C(=O)CN(C(=O)CN(CCCCN)C(=O)CN(CCc1c[nH]c2ccccc12)C(=O)CN(C(=O)CNCCCCN)[C@@H](C)c1ccccc1)[C@@H](C)c1ccccc1)[C@@H](C)c1ccccc1)[C@@H](C)c1ccccc1)[C@@H](C)c1ccccc1)[C@@H](C)c1ccccc1 [10-HCl] | 6.3 | 3.1 | 81.5±7.4 | 15.3 | 37.8 |  |  | 
3 |  |  |  |  | C[C@@H](c1ccccc1)N(CC(=O)N(CCCCN)CC(=O)N(CC(=O)N(CC(=O)N(CCCCN)CC(=O)N(CC(=O)N(CC(=O)N(CCCCN)CC(=O)N(CCc1c[nH]c2ccccc12)CC(=O)N(CCc1c[nH]c2ccccc12)CC(N)=O)[C@@H](C)c1ccccc1)[C@@H](C)c1ccccc1)[C@@H](C)c1ccccc1)[C@@H](C)c1ccccc1)C(=O)CN(C(=O)CNCCCCN)[C@@H](C)c1ccccc1 [11-AcOH] (H-[Nlys][Nspe][Nspe][Nlys][Nspe][Nspe][Nlys][Nspe][Nspe][Nlys][Gly(N(CH2)2(3-indolyl))][Gly(N(CH2)2(3-indolyl))]-NH2) | 3.1 (≈ 5.88 µg/mL) | 1.6 (≈ 3.04 µg/mL) | 110.4±0.2 | 8.7 | 29.7 |  |  | 
4 | 45.7 | 12.5 (≈ 22.2 µg/mL) |  |  | CC[C@H](C)[C@H](N)C(=O)N[C@@H](CC(C)C)C(=O)N[C@@H](CCCNC(=N)N)C(=O)N[C@@H](Cc1c[nH]c2ccccc12)C(=O)N1CCC[C@H]1C(=O)N[C@@H](Cc1c[nH]c2ccccc12)C(=O)N[C@@H](Cc1c[nH]c2ccccc12)C(=O)N1CCC[C@H]1C(=O)N[C@@H](Cc1c[nH]c2ccccc12)C(=O)N[C@@H](CCCNC(=N)N)C(=O)N[C@@H](CCCNC(=N)N)C(=O)N[C@@H](CCCCN)C(N)=O [Omiganan, reference compound] (H-ILRWPWWPWRRK-NH2) |  |  | 0 |  |  | 0 | > 100 | > 100
5 |  |  | 54.6 | 3.1 (≈ 5.76 µg/mL) | C[C@@H](c1ccccc1)N(CC(N)=O)C(=O)CN(C(=O)CN(CCCCN)C(=O)CN(C(=O)CN(C(=O)CN(CCCCN)C(=O)CN(CCc1c[nH]c2ccccc12)C(=O)CN(C(=O)CN(CCCCN)C(=O)CN(C(=O)CN(C(=O)CNCCCCN)[C@@H](C)c1ccccc1)[C@@H](C)c1ccccc1)[C@@H](C)c1ccccc1)[C@@H](C)c1ccccc1)[C@@H](C)c1ccccc1)[C@@H](C)c1ccccc1 [peptoid 9] |  |  | 106.4±0.6 |  |  |  | 10.6 | 31.9
6 |  |  | 53.7 |  | C[C@@H](c1ccccc1)N(CC(N)=O)C(=O)CN(C(=O)CN(CCCCN)C(=O)CN(C(=O)CN(CCc1c[nH]c2ccccc12)C(=O)CN(CCCCN)C(=O)CN(CCc1c[nH]c2ccccc12)C(=O)CN(C(=O)CN(CCCCN)C(=O)CN(C(=O)CN(C(=O)CNCCCCN)[C@@H](C)c1ccccc1)[C@@H](C)c1ccccc1)[C@@H](C)c1ccccc1)[C@@H](C)c1ccccc1)[C@@H](C)c1ccccc1 [peptoid 15] | 3.1 (≈ 5.88 µg/mL) |  |  | 20.5 | 89.2 |  | 28.1 | 60.9
7 |  |  | 53.1 |  | C[C@@H](c1ccccc1)N(CC(=O)N(CCCCN)CC(=O)N(CC(=O)N(CC(=O)N(CCCCN)CC(=O)N(CC(=O)N(CC(=O)N(CCCCN)CC(=O)N(CC(=O)N(CC(N)=O)Cc1ccccc1)Cc1ccccc1)[C@@H](C)c1ccccc1)[C@@H](C)c1ccccc1)[C@@H](C)c1ccccc1)[C@@H](C)c1ccccc1)C(=O)CN(C(=O)CNCCCCN)[C@@H](C)c1ccccc1 [peptoid 44] (H-[Nlys][Nspe][Nspe][Nlys][Nspe][Nspe][Nlys][Nspe][Nspe][Nlys][Nphe][Nphe]-NH2) |  |  | 97.9±3.7 |  |  |  | 6.3 | 28.6
8 |  |  | 53.7 |  | C[C@@H](c1ccccc1)N(CC(N)=O)C(=O)CN(C(=O)CN(CCCCN)C(=O)CN(C(=O)CN(C(=O)CN(CCCCN)C(=O)CN(C(=O)CN(C(=O)CN(CCCCN)C(=O)CN(Cc1ccccc1)C(=O)CN(Cc1ccccc1)C(=O)CNCCCCN)[C@@H](C)c1ccccc1)[C@@H](C)c1ccccc1)[C@@H](C)c1ccccc1)[C@@H](C)c1ccccc1)[C@@H](C)c1ccccc1 [peptoid 46] |  |  | 90.8±2.7 |  |  |  | 6.9 | 36.5
9 |  |  | 47.8 |  | C[C@@H](c1ccccc1)N(CC(N)=O)C(=O)CN(CCCCN)C(=O)CN(CCCCN)C(=O)CN(C(=O)CN(C(=O)CN(CCCCN)C(=O)CN(C(=O)CN(C(=O)CN(CCCCN)C(=O)CN(Cc1ccccc1)C(=O)CN(Cc1ccccc1)C(=O)CNCCCCN)[C@@H](C)c1ccccc1)[C@@H](C)c1ccccc1)[C@@H](C)c1ccccc1)[C@@H](C)c1ccccc1 [peptoid 47] |  |  | 4.8±0.2 |  |  |  | > 100 | > 100
10 |  |  | 53.4 |  | C[C@H](NCC(=O)N(CCCCN)CC(=O)N(CC(=O)N(CC(=O)N(CCCCN)CC(=O)N(CC(=O)N(CC(=O)N(CCCCN)CC(=O)N(CC(=O)N(CC(=O)N(CCCCN)CC(=O)N(CC(N)=O)[C@@H](C)c1ccccc1)[C@@H](C)c1ccccc1)[C@@H](C)c1ccccc1)[C@@H](C)c1ccccc1)[C@@H](C)c1ccccc1)[C@@H](C)c1ccccc1)[C@@H](C)c1ccccc1)c1ccccc1 [peptoid 48] (H-[Nspe][Nlys][Nspe][Nspe][Nlys][Nspe][Nspe][Nlys][Nspe][Nspe][Nlys][Nspe]-NH2) |  |  | 79.9±3.6 |  |  |  | 25.7 | 48.4
11 |  |  | 46.6 |  | C[C@@H](c1ccccc1)N(CC(=O)N(CCCCN)CC(=O)N(CC(=O)N(CC(=O)N(CCCCN)CC(=O)N(CC(=O)N(CC(=O)N(CCCCN)CC(=O)N(CCCCN)CC(N)=O)[C@@H](C)c1ccccc1)[C@@H](C)c1ccccc1)[C@@H](C)c1ccccc1)[C@@H](C)c1ccccc1)C(=O)CN(C(=O)CNCCCCN)[C@@H](C)c1ccccc1 [peptoid 49] (H-[Nlys][Nspe][Nspe][Nlys][Nspe][Nspe][Nlys][Nspe][Nspe][Nlys][Nlys]-NH2) |  |  | 0.3±0.3 |  |  |  | > 100 | > 100
12 |  |  | 51.2 |  | C[C@@H](c1ccccc1)N(CC(=O)N(CCCCN)CC(=O)N(CC(=O)N(CC(=O)N(CCCCN)CC(=O)N(CC(=O)N(CC(=O)N(CCCCN)CC(=O)N(CC(=O)N(CC(=O)N(CCCCN)CC(=O)N(CCCCN)CC(N)=O)[C@@H](C)c1ccccc1)[C@@H](C)c1ccccc1)[C@@H](C)c1ccccc1)[C@@H](C)c1ccccc1)[C@@H](C)c1ccccc1)[C@@H](C)c1ccccc1)C(=O)CNCCc1c[nH]c2ccccc12 [peptoid 61] (H-[Gly(N(CH2)2(3-indolyl))][Nspe][Nlys][Nspe][Nspe][Nlys][Nspe][Nspe][Nlys][Nspe][Nspe][Nlys][Nlys]-NH2) |  |  | 79.9±0.7 |  |  |  | 19.3 | 65.4
13 |  |  | 50.8 |  | C[C@@H](c1ccccc1)N(CC(N)=O)C(=O)CN(CCCCN)C(=O)CN(C(=O)CN(CCCCN)C(=O)CN(CCCCN)C(=O)CN(C(=O)CN(C(=O)CN(CCCCN)C(=O)CN(C(=O)CN(C(=O)CN(CCCCN)C(=O)CN(C(=O)CNCCc1c[nH]c2ccccc12)[C@@H](C)c1ccccc1)[C@@H](C)c1ccccc1)[C@@H](C)c1ccccc1)[C@@H](C)c1ccccc1)[C@@H](C)c1ccccc1)[C@@H](C)c1ccccc1 [peptoid 62] |  |  | 44.8±8.1 |  |  |  | 36.2 | > 100
